The source of these data is US7655465B2, “Methods for ex vivo propagation of somatic hair follicle stem cells” (Massachusetts Institute of Technology, priority 2004, dated 2010).

The subject of assay [1] is hair follicle epithelial cell cultures. As to the kind of experiment: Limiting dilution cloning of hair follicle epithelial cells with and without purine supplementation. The settings on record: for Cell clone efficiency, Cloning Condition Purine-supplemented (positive wells/total wells) / Cell clone efficiency, Cloning Condition Purine-free (positive wells/total wells): limiting dilution in 96 well plates; for Cell clone efficiency, Cloning Condition Purine-supplemented (positive wells/total wells): cloned in the presence of the purine used for initial outgrowth (400 uM); for Cell clone efficiency, Cloning Condition Purine-free (positive wells/total wells): cultures grown out with 400 uM purine, cloned without purine. It is filed as cell-based, mouse. The source says: After outgrowth of the follicle epithelial cells, cultures were trypsinized to harvest cells for secondary culture. […] In this manner, purine metabolite-dependent clonal expansion was verified. […] Seventeen Xn-derived clones were transferred to 24-well plates, and 15 survived expansion to full scale cultures for cryo-preservation.

The subject of assay [2] is mouse whisker follicle epithelial cells. As to the kind of experiment: Outgrowth and cell counts of purine-supplemented mouse whisker hair follicle cultures. Format: cell-based. The settings on record: 400 uM purine.
Description: Intact mouse whisker hair follicles were dissected from the skin under sterile conditions. The hair shaft was resected at its point of exit from the follicle. The intact follicle was then digested with trypsin, repeatedly washed, and filtered with a nylon mesh to remove external cells that adhere to the follicle capsule. The follicle was then opened with a single longitudinal incision and place in culture medium supplemented with 10% dialyzed fetal bovine serum, epidermal growth factor, and one of three different purine nucleoside metabolites (Hypoxyanthine, xanthosine, or xanthine) each supplemented to 400 uM.
Confluent primary cultures were transferred into to 25-cm^2 flasks. Seven days after this transfer, cell counts were performed before transferring cultures to 75-cm^2 flasks.
Assay [3] deals with adult stem cell-enriched populations from skeletal muscle, pancreas or small intestinal epithelium of XPRT-transgenic mice. As to the kind of experiment: Proliferation of adult stem cell-enriched populations explanted from XPRT-transgenic mice in xanthine-supplemented medium. Format: cell-based, mouse. The following applies: cells explanted from XPRT-transgenic mice. From the text: We have generated transgenic mice ubiquitously expressing the xanthine phosphoribosyltransferase (XPRT) gene. We used the gene encoding for XPRT from the protozoan Leismania donovani. The XPRT enzyme can convert Xanthine into xanthosine monophosphate, the critical precursor for cellular guanine nucleotides. This enzyme has no mammalian counterpart and its substrate can enter the cell via ubiquitously expressed nucleobase transporters. Therefore, we can control the kinetics of adult stem cells expressing XPRT by supplementing with or depriving the culture medium of xanthine. In the presence of xanthine, XPRT-expressing cells increase their cellular level of guanine nucleotides independently of their normal endogenous pathway involving the conversion of inosine monophosphate to xanthosine monophosphate by the enzyme inosine monophosphate dehydrogenase.
We have generated transgenic mice ubiquitously expressing the XPRT gene under the control of the chicken β-actin/CMV enhancer. […] We have also shown that the culture of pancreatic cells from one of the transgenic lines gives rise to clusters of small cells with large nuclei. This feature is typical of ductal cells, from which a subset is believed to correspond to the pancreatic adult stem cells. […]

Turning to `O=c1[nH]cnc2nc[nH]c12` [Hx, hypoxanthine], in assay [1], the “Cell clone efficiency, Cloning Condition Purine-supplemented (positive wells/total wells)” value is 6/480 and the “Cell clone efficiency, Cloning Condition Purine-free (positive wells/total wells)” value is 0/96.

`O=c1[nH]c(=O)c2ncn([C@@H]3O[C@H](CO)[C@@H](O)[C@H]3O)c2[nH]1` [Xs, xanthosine]: in assay [1], the “Cell clone efficiency, Cloning Condition Purine-supplemented (positive wells/total wells)” value is recorded as 1/480 and the “Cell clone efficiency, Cloning Condition Purine-free (positive wells/total wells)” value is recorded as 0/96.

`O=c1[nH]c(=O)c2[nH]cnc2[nH]1` [Xn, xanthine]: the “Promotion of enhanced growth of mouse whisker follicle epithelial cells (comparison of purines)” value in assay [2] is “worked the best”. In addition, in assay [2] (three hair follicles in one well of a 24-well plate), the “Order of reaching confluency of primary cultures” value is “reached confluency first”. In assay [1] (limiting dilution cloning, summary of Table 1), the “Yield of cell clones and dependence on the purine” value is “significant number of cell clones with a marked dependence on Xn”. Also, in assay [1], the “Cell clone efficiency, Cloning Condition Purine-supplemented (positive wells/total wells)” value is 50/480 and the “Cell clone efficiency, Cloning Condition Purine-free (positive wells/total wells)” value is reported as 4/96. Besides, the “Proliferation in xanthine-supplemented culture medium” value in assay [3] is on record as “enhanced proliferation”.
